Measured values: patent publication US11633394B2, “Substituted alkynylene compounds as anticancer agents” (Aurigene Oncology Limited, priority 2018, dated 2023)

Columns and labels:
[1] = tested on: NCI-H1792 cells; experiment: Anti proliferative activity in NCI-H1792 cells by XTT assay; type: cell-based; conditions: H1792 cell line; for IC50: 72 hours incubation; for viability at 30 µM / % Viability (at 30 μM): 72 hours
Procedure: Example 78: Determination of Anti Proliferative Activity in NCI-H1792 Cells by XTT Assay
NCI-H1792 cells (ATCC CRL-5895) were plated at 2000 cells/well in 96 well flat clear bottom plates (Corning, Cat. No 3596) using complete RPMI media. After 24 hours, compounds of present invention were added to cells from 20 mM stocks made in DMSO (Sigma Cat no. D2650). Each concentration of compound was tested in triplicate with DMSO concentration not exceeding a final percentage of 0.3 in the cells. After 72 hours of incubation in CO2 incubator, XTT (Invitrogen, Cat. no X6493) was added to the wells. XTT was dissolved in serum free media at 1 mg/ml and absorbance readings were taken in spectrophotometer at 465 nm. The data was analysed using graph pad prism software. Positive control (100% survival)=Cells in complete media with 0.3% DMSO; Negative control/blank (0% survival)=Media alone containing 0.3% DMSO.
(§1) The compounds of the present invention were screened in the above mentioned assay and the results are tabulated below.

[2] = tested on: NCI-H2122 cells; experiment: Anti proliferative activity in NCI-H2122 cells by XTT assay; type: cell-based; conditions: H2122 cell line; for IC50: 8 days (192 hour) incubation; for viability at 30 µM: 8 days
Procedure: Example 79: Determination of Anti Proliferative Activity in NCI-H2122 Cells by XTT Assay
NCI-H2122 cells (ATCC CRL-5985) were plated at 1000 cells/well in 96 well flat clear bottom plates (Corning, Cat. No 3596) using complete RPMI-1640 media. After 24 hours, compounds of present invention were added to cells from 10 mM stocks made in DMSO (Sigma Cat no. D2650). Each concentration of compound was tested in triplicate with DMSO concentration not exceeding a final percentage of 0.3 in the cells. Complete RPMI-1640 media changed at Day 3 (72 hour) and Day 6 (144 hour) along with compounds of current invention. After 8 days (192 hour) of incubation assay terminated using 50 μl of XTT reagent (Invitrogen, Cat. no X6493). XTT reagent was made by dissolving 1 mg/mi XTT in serum free media with addition of 25 μM Phenazine methosulfate (sigma Cat. no P9625). Absorbance readings were taken in spectrophotometer at 465 nm. The data was analysed using graph pad prism software. Positive control (100% survival)=Cells in complete media with 0.3% DMSO; Negative control/blank (0% survival)=Media alone containing 0.3% DMSO.
as §1

IC50 ([1]; Homo sapiens, NCI-H1792, 72 h) | SMILES | viability at 30 µM ([1]; Homo sapiens, NCI-H1792, 72 h) | also measured
< 10 µM | C=CC(=O)N1CCN(C(=O)NC(C)C#Cc2ccc(Cl)c(Cl)c2)CC1 (racemic) [Example 1, 4-acryloyl-N-(4-(3,4-dichlorophenyl)but-3-yn-2-yl) piperazine-1-carboxamide] | 40% | –
< 10 µM | C=CC(=O)N1CCN(C(=O)NC(C#Cc2ccc(Cl)c(Cl)c2)CC)CC1 (racemic) [Example 2, 4-acryloyl-N-(1-(3,4-dichlorophenyl)pent-1-yn-3-yl)piperazine-1-carboxamide] | 22% | –
10 to 25 µM | C=CC(=O)N1CCN(C(=S)NC(C)C#Cc2ccc(Cl)c(Cl)c2)CC1 (racemic) [Example 69, 4-Acryloyl-N-(4-(3,4-dichlorophenyl)but-3-yn-2-yl) piperazine-1-carbothioamide] | 18% | –
10 to 25 µM | C=CC(=O)N1CCN(C(=O)NC(C#Cc2ccc(Cl)c(Cl)c2)C(C)C)CC1 (stereo not shown) [Example 4] | 15% | –
10 to 25 µM | C=CC(=O)N1CCN(C(=O)NC(C)C#Cc2ccc(C(F)(F)F)c(Cl)c2)CC1 (stereo not shown) [Example 6] | 19% | –
10 to 25 µM | C=CC(=O)N1CCN(C(=O)NC(C)C#Cc2ccc(C)c(Cl)c2)CC1 (stereo not shown) [Example 7] | 33% | –
< 10 µM | C=CC(=O)N1CC(N2CCN(C(=O)NC(C)C#Cc3ccc(Cl)c(Cl)c3)CC2)C1 (stereo not shown) [Example 8] | 35% | –
> 25 µM | C=CC(=O)N1CCN(C(=O)NC(C)C#Cc2ccc3ccccc3c2)CC1 (stereo not shown) [Example 9] | 47% | –
> 25 µM | C=CC(=O)N1CCN(C(=O)NC(C)C#Cc2ccc3[nH]ncc3c2)CC1 (stereo not shown) [Example 10] | 89% | –
> 25 µM | C/C=C/C(=O)N1CCN(C(=O)NC(C)C#Cc2ccc(Cl)c(Cl)c2)CC1 (stereo not shown) [Example 14] | – | –
> 25 µM | CC(C)=CC(=O)N1CCN(C(=O)NC(C)C#Cc2ccc(Cl)c(Cl)c2)CC1 (stereo not shown) [Example 15] | 90% | –

Continued, molecule first:

SMILES | IC50 ([1]; Homo sapiens, NCI-H1792, 72 h) | viability at 30 µM ([1]; Homo sapiens, NCI-H1792, 72 h) | also measured
C=CC(=O)N1CCN(C(=O)NC(C)C#Cc2ccc(Cl)c(NC(C)=O)c2)CC1 (racemic) [Example 40, N-(4-(3-acetamido-4-chlorophenyl)but-3-yn-2-yl)-4-acryloylpiperazine-1-carboxamide] | – | – | IC50 ([2]; Homo sapiens, NCI-H2122, 192 h): 10 to 25 µM
C=C(C)C(=O)N1CCN(C(=O)NC(C)C#Cc2ccc(Cl)c(Cl)c2)CC1 (racemic) [Example 43, N-(4-(3,4-dichlorophenyl)but-3-yn-2-yl)-4-methacryloylpiperazine-1-carboxamide] | – | – | IC50 ([2]; Homo sapiens, NCI-H2122, 192 h): > 25 µM; viability at 30 µM ([2]; Homo sapiens, NCI-H2122, 192 h): 78%
CC(C#Cc1ccc(Cl)c(Cl)c1)NC(=O)N1CCN(C(=O)C2(C#N)CC2)CC1 (racemic) [Example 44, 4-(1-cyanocyclopropane-1-carbonyl)-N-(4-(3,4-dichlorophenyl)but-3-yn-2-yl) piperazine-1-carboxamide] | – | – | IC50 ([2]; Homo sapiens, NCI-H2122, 192 h): > 25 µM; viability at 30 µM ([2]; Homo sapiens, NCI-H2122, 192 h): 99%
CC(C#Cc1ccc(Cl)c(Cl)c1)NC(=O)N1CCN(C(=O)/C=C/CN(C)C)CC1 (racemic) [Example 47, (E)-N-(4-(3,4-dichlorophenyl)but-3-yn-2-yl)-4-(4-(dimethylamino)but-2-enoyl) piperazine-1-carboxamide] | < 10 µM | 26% | –
C=CS(=O)(=O)NC1CCN(C(=O)NC(C)C#Cc2ccc(Cl)c(Cl)c2)CC1 (racemic) [Example 49, N-(4-(3,4-dichlorophenyl)but-3-yn-2-yl)-4-(vinylsulfonamido) piperidine-1-carboxamide] | 10 to 25 µM | 35% | –
CC(C#Cc1ccc(Cl)c(Cl)c1)NC(=O)N1CCN(C(=O)/C=C/C(N)=O)CC1 (racemic) [Example 65, (E)-4-(4-amino-4-oxobut-2-enoyl)-N-(4-(3,4-dichlorophenyl)but-3-yn-2-yl) piperazine-1-carboxamide] | > 25 µM | 73% | –
C=CS(=O)(=O)N[C@H]1CC[C@H](C(=O)NC(C)C#Cc2ccc(Cl)c(Cl)c2)CC1 (mixture of isomers) [Example 75, (1r,4r)-N-(4-(3,4-dichlorophenyl)but-3-yn-2-yl)-4-(vinylsulfonamido) cyclohexane-1-carboxamide] | < 10 µM | 10% | –
C=CC(=O)Nc1ccc(C(=O)NC(C)C#Cc2ccc(Cl)c(Cl)c2)cc1 (racemic) [Example 76, 4-acrylamido-N-(4-(3,4-dichlorophenyl)but-3-yn-2-yl)benzamide] | < 10 µM | 26% | –
CC(C#Cc1ccc(Cl)c(Cl)c1)NC(=O)N1CCN(C(=O)C2CC(Br)=NO2)CC1 (racemic) [Example 77, 4-(3-bromo-4,5-dihydroisoxazole-5-carbonyl)-N-(4-(3,4-dichlorophenyl)but-3-yn-2-yl)piperazine-1-carboxamide(±)] | – | – | IC50 ([2]; Homo sapiens, NCI-H2122, 192 h): 10 to 25 µM
C=CC(=O)N1CCN(C(=O)NC(C)C#Cc2ccc(Cl)c(Cl)c2)CC1 (single isomer, unassigned) [Example 1b, 4-acryloyl-N-(4-(3,4-dichlorophenyl)but-3-yn-2-yl) piperazine-1-carboxamide] | – | – | IC50 [1]: 10 to 25 µM; % Viability (at 30 μM) [1]: 37%
C=CC(=O)N1CCN(C(=O)NC(C#Cc2ccc(Cl)c(Cl)c2)CC)CC1 (single isomer, unassigned) [Example 2a] | – | – | IC50 [1]: > 25 µM; % Viability (at 30 μM) [1]: 56%
C=CC(=O)N1CCN(C(=O)NC(C#Cc2ccc(Cl)c(Cl)c2)CC)CC1 (single isomer, unassigned) [Example 2b] | – | 57% | IC50 [1]: 10 to 25 µM
C=CC(=O)N(C)[C@@H]1CCCC[C@H]1N(C)C(=O)NC(C)C#Cc1ccc(Cl)c(Cl)c1 (single isomer, unassigned) [Example 48a] | – | – | IC50 [2]: > 25 µM
C=CC(=O)N(C)[C@@H]1CCCC[C@H]1N(C)C(=O)NC(C)C#Cc1ccc(Cl)c(Cl)c1 (single isomer, unassigned) [Example 48b] | – | – | IC50 [2]: 10 to 25 µM
C=CC(=O)N1CCN(C(=O)NC(C)C#Cc2cccc3c2cnn3C)CC1 (stereo not shown) [Example 11] | > 25 µM | 91% | –
C=CC(=O)NC1CCN(C(=O)NC(C)C#Cc2ccc(Cl)c(Cl)c2)CC1 (stereo not shown) [Example 12] | > 25 µM | 83% | –

SMILES | IC50 ([1]; Homo sapiens, NCI-H1792, 72 h) | viability at 30 µM ([1]; Homo sapiens, NCI-H1792, 72 h) | also measured
CC(C#Cc1ccc(Cl)c(Cl)c1)NC(=O)N1CCN(C(=O)/C=C/c2ccccc2)CC1 (stereo not shown) [Example 13] | > 25 µM | – | –
CC(C#Cc1ccc(Cl)c(Cl)c1)NC(=O)N1CCN(C(=O)C(C)Cl)CC1 (stereo not shown) [Example 16] | 10 to 25 µM | 3% | –
C=CC(=O)N1CCN(C(=O)NC(C)C#Cc2ccc(Cl)s2)CC1 (stereo not shown) [Example 17] | – | – | IC50 ([2]; Homo sapiens, NCI-H2122, 192 h): 10 to 25 µM; viability at 30 µM ([2]; Homo sapiens, NCI-H2122, 192 h): 19%
C=CC(=O)N1CCN(C(=O)NC(C)C#Cc2ccc(OCc3ccccc3)c(Cl)c2)CC1 (stereo not shown) [Example 18] | – | – | IC50 ([2]; Homo sapiens, NCI-H2122, 192 h): < 10 µM; viability at 30 µM ([2]; Homo sapiens, NCI-H2122, 192 h): 1%
CC(C#Cc1ccc(Cl)c(Cl)c1)NC(=O)N1CCN(C(=O)CCl)CC1 (stereo not shown) [Example 19] | < 10 µM | – | –
CC(C#Cc1ccc(Cl)c(Cl)c1)NC(=O)N1CCN(CC2CO2)CC1 (stereo not shown) [Example 21] | – | – | IC50 ([2]; Homo sapiens, NCI-H2122, 192 h): 10 to 25 µM; viability at 30 µM ([2]; Homo sapiens, NCI-H2122, 192 h): 31%
C=CC(=O)N1CCN(C(=O)NC(C)C#Cc2ccc(F)c(Cl)c2)CC1 (stereo not shown) [Example 22] | – | – | IC50 ([2]; Homo sapiens, NCI-H2122, 192 h): > 25 µM; viability at 30 µM ([2]; Homo sapiens, NCI-H2122, 192 h): 49%
C=CC(=O)N1CCN(C(=O)NC2(C#Cc3ccc(Cl)c(C4(C)CC4)c3)CC2)CC1 [Example 26] | – | – | IC50 ([2]; Homo sapiens, NCI-H2122, 192 h): 10 to 25 µM
C=CC(=O)N1CC(N2CCN(C(=O)NC3(C#Cc4ccc(Cl)c(C5(C)CC5)c4)CC3)CC2)C1 [Example 27] | – | – | IC50 ([2]; Homo sapiens, NCI-H2122, 192 h): < 10 µM
C=CC(=O)N1CCN(C(=O)NC(C)C#Cc2ccc(Cl)c(C3(C)CC3)c2)CC1 (stereo not shown) [Example 28] | – | – | IC50 ([2]; Homo sapiens, NCI-H2122, 192 h): 10 to 25 µM
C=CC(=O)N1CCN(C(=O)NC(C)C#Cc2ccc(Cl)cc2Cl)CC1 (stereo not shown) [Example 30] | – | – | IC50 ([2]; Homo sapiens, NCI-H2122, 192 h): 10 to 25 µM; viability at 30 µM ([2]; Homo sapiens, NCI-H2122, 192 h): 19%
C=CC(=O)NC1CC2CC1CN2C(=O)NC(C)C#Cc1ccc(Cl)c(Cl)c1 (stereo not shown) [Example 55] | > 25 µM | 100% | –
C=CS(=O)(=O)NC1CC2CC1CN2C(=O)NC(C)C#Cc1ccc(Cl)c(Cl)c1 (stereo not shown) [Example 56] | 10 to 25 µM | 39% | –
CCOC(=O)/C=C/C(=O)N1CCN(C(=O)NC(C)C#Cc2ccc(Cl)c(Cl)c2)CC1 (stereo not shown) [Example 57] | < 10 µM | 17% | –
C=CC(=O)N1CCC(C(=O)NC(C)C#Cc2ccc(Cl)c(Cl)c2)CC1 (stereo not shown) [Example 70] | < 10 µM | 33% | –
C=CC(=O)N[C@H]1CC[C@H](C(=O)NC(C)C#Cc2ccc(Cl)c(Cl)c2)CC1 (stereo partly shown) [Example 73] | > 25 µM | 64% | –
